17 molecules from patent US11254686B1 (Corvus Pharmaceuticals, Inc., priority 2017, dated 2022) can be followed below.

pIC50: −log10 of the molar value. Where two headings read alike, the source gives them in different places.

Data set [1] deals with T1, adenosine A1 receptor (Homo sapiens (Human), UniProt P30542). Nature of the data set: A1 cAMP IC50 assay (Table 1). It is filed as biochemical.
A further data set deals with adenosine A2B receptor (Homo sapiens (Human), UniProt P29275). Nature of the data set: Adenosine receptor activity assay (Table 1), A2B activity. It is filed as biochemical. As to conditions: for pIC50: read-out: Ave A2B cAMP IC50.
A short description of data set [2]: Hepatocyte (Hep) intrinsic clearance, human. The format is in vitro ADME. As to conditions: hepatocytes.
Another data set has as its target adenosine A2A receptor (Homo sapiens (Human), UniProt P29274). Nature of the data set: Adenosine receptor activity assay (Table 1), A2A activity. It is filed as biochemical. As to conditions: read-out: Ave A2A cAMP IC50.
The target of a further data set is CYP3A4 (Homo sapiens (Human), UniProt P08684). Put plainly: CYP450 inhibition at 10 μM, CYP3A4. The format is in vitro ADME. As to conditions: human, 10 μM, read-out: CYP 450 % INH @ 10 μM.
For data set [3], the target named is T2, adenosine A3 receptor (Homo sapiens (Human), UniProt P0DMS8). Nature of the data set: A3 cAMP IC50 assay (Table 1). The format is biochemical.
Data set [4] is described as follows: Hepatocyte (Hep) intrinsic clearance, rat. It is filed as in vitro ADME. As to conditions: hepatocytes.
Data set [5] concerns the target T1, adenosine A1 receptor. Nature of the data set: Adenosine receptor activity assay (Table 1), A1 cAMP. It is filed as biochemical.
Data set [6] concerns the target T2, adenosine A3 receptor. Put plainly: Adenosine receptor activity assay (Table 1), A3 cAMP. The format is biochemical.
Where [7] appears, read: A2A activity to A2B activity (A2A/A2B).

adenosine A2B receptor, sequence (P29275 whole entry): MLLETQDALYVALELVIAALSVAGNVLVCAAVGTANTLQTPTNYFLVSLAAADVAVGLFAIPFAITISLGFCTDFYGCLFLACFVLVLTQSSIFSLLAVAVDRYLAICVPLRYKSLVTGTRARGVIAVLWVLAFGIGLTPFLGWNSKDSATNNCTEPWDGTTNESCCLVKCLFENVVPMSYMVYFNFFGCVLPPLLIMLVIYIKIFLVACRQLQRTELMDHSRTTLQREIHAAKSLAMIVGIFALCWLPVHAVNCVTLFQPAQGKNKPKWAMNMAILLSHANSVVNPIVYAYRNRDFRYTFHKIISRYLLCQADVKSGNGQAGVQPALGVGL
T1 sequence (P30542 whole entry): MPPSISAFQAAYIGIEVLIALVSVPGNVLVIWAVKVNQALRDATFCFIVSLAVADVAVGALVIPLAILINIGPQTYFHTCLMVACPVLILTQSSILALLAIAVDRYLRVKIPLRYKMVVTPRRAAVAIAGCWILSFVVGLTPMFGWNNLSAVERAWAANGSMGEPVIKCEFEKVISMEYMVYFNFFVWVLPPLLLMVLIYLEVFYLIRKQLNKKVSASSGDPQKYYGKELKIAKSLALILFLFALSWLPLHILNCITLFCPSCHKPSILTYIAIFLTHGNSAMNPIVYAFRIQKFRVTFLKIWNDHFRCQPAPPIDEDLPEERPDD
CYP3A4, sequence (P08684 whole entry): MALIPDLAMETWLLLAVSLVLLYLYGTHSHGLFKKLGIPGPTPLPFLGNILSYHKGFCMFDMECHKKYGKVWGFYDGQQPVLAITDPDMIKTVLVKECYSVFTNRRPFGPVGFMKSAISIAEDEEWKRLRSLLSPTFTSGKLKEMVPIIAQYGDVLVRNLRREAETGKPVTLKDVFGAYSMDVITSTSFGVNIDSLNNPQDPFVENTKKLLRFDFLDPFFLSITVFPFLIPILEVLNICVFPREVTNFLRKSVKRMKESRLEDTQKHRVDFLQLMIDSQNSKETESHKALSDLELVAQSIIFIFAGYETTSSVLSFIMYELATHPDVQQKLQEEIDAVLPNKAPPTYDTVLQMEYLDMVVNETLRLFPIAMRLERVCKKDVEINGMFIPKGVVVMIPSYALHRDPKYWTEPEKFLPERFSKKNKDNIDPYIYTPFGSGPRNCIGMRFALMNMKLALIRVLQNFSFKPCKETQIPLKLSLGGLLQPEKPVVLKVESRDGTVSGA
T2 sequence (P0DMS8 whole entry): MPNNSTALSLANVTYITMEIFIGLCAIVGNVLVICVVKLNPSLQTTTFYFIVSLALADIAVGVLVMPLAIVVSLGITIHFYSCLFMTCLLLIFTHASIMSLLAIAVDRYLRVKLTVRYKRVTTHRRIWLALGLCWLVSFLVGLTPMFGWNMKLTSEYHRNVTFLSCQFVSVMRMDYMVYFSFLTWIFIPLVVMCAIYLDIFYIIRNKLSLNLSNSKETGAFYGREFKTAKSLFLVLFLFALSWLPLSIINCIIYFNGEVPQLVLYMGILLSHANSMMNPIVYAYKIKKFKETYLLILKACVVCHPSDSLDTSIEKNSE
adenosine A2A receptor, sequence (P29274 whole entry): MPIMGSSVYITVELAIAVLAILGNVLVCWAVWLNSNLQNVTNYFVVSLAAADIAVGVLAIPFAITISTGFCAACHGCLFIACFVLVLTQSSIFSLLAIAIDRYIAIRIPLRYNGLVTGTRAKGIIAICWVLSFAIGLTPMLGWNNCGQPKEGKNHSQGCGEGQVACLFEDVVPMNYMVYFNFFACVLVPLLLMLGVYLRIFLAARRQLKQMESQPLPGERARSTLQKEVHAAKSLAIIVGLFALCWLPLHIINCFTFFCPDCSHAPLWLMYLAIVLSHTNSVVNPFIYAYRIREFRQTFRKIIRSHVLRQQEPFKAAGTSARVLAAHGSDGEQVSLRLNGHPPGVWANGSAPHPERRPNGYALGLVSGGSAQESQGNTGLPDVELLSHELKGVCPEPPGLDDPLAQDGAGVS

The pIC50 is −log10 of the IC50, conventionally taken in molar units. By hepatocyte CLint is commonly meant the capacity of the preparation to metabolise the compound, expressed as a volume cleared per time. A low value points to greater metabolic stability. With `C[C@H](Nc1nc(C(=O)N2CCCC2)c2sccc2n1)c1cncc(F)c1` [Example Z134, (S)-(2-((1-(5-Fluoropyridin-3-yl)ethyl)amino)thieno[3,2-d]pyrimidin-4-yl)(pyrrolidin-1-yl)methanone], the pIC50 was less than 6.30 at adenosine A1 receptor [1], greater than 8.00 on adenosine A2B receptor, 6.30 to 7.00 at adenosine A2A receptor and less than 6.30 on adenosine A3 receptor [3]. In addition, the Ratio at adenosine A2B receptor (setting [7]) worked out at 72.09. The hepatocyte CLint in [2] came out at 17.9 µL/min/1e6 cells; in data set [4] it was 72.9 µL/min/1e6 cells. Further, on CYP3A4, the inhibition at 10 µM was determined as 62.7%.

Turning to `C[C@@H]1CCN(C(=O)c2nc(N[C@@H](C)c3ccccn3)nc3ccsc23)C1` [Example Z86, ((R)-3-Methylpyrrolidin-1-yl)(2-(((S)-1-(pyridin-2-yl)ethyl)amino)thieno[3,2-d]pyrimidin-4-yl)methanone], the pIC50 against adenosine A1 receptor [1] was less than 6.30; at adenosine A2B receptor, 7.30 to 8.00; at adenosine A2A receptor it was 7.00 to 7.30; against adenosine A3 receptor [3], less than 6.30. In addition, the Ratio on adenosine A2B receptor (setting [7]) is on record as 4.25. In addition, the figures for the hepatocyte CLint in data set [2] and in data set [4] were 11.8 µL/min/1e6 cells and 55.1 µL/min/1e6 cells, respectively. Moreover, the inhibition at 10 µM at CYP3A4 worked out at 19%.

As to `C[C@H](Nc1nc(C(=O)N2CCC2)c2sccc2n1)c1ccccn1` [Example Z90, (S)-Azetidin-1-yl(2-((1-(pyridin-2-yl)ethyl)amino)thieno[3,2-d]pyrimidin-4-yl)methanone], the pIC50 was less than 6.30 against adenosine A1 receptor [1], greater than 8.00 at adenosine A2B receptor, 7.00 to 7.30 at adenosine A2A receptor and less than 6.30 against adenosine A3 receptor [3]. Further, at adenosine A2B receptor (setting [7]), the Ratio was found to be 18.88. For the same molecule, the results for the hepatocyte CLint in [2] and in [4] were 6.32 µL/min/1e6 cells and 33.3 µL/min/1e6 cells, respectively. Besides, on CYP3A4, the inhibition at 10 µM was determined as 0%.

Turning to `C[C@H](Nc1nc(C(=O)N2CC(F)(F)C2)c2sccc2n1)c1ccccn1` [Example Z92, (S)-(3,3-Difluoroazetidin-1-yl)(2-((1-(pyridin-2-yl)ethyl)amino)thieno[3,2-d]pyrimidin-4-yl)methanone], the pIC50 at adenosine A1 receptor [1] is less than 6.30; at adenosine A2B receptor, 7.30 to 8.00; on adenosine A2A receptor it was 6.30 to 7.00; at adenosine A3 receptor [3] it was less than 6.30. The Ratio on adenosine A2B receptor (setting [7]) was 10.92. Further, the hepatocyte CLint in [2] was determined as 45.2 µL/min/1e6 cells; in [4] it was 46.5 µL/min/1e6 cells. On CYP3A4, the inhibition at 10 µM came to 0%.

`O=C(c1nc(NCc2cccc(Cl)c2)nc2ccsc12)N1CC(O)C1` [Example Z122, (2-((3-Chlorobenzyl)amino)thieno[3,2-d]pyrimidin-4-yl)(3-hydroxyazetidin-1-yl)methanone]: the pIC50 is 7.30 to 8.00 at adenosine A2B receptor and 6.30 to 7.00 at adenosine A2A receptor. For the same molecule, the hepatocyte CLint in data set [2] worked out at 68.4 µL/min/1e6 cells; in [4], 112 µL/min/1e6 cells. Also, on CYP3A4, the inhibition at 10 µM was found to be 22.9%.

For the molecule `C[C@H](Nc1nc(C(=O)N2CCOC2)c2sccc2n1)c1ccccn1` [Example Z105, (S)-Oxazolidin-3-yl(2-((1-(pyridin-2-yl)ethyl)amino)thieno[3,2-d]pyrimidin-4-yl)methanone], the pIC50 is less than 6.30 on adenosine A1 receptor [1], greater than 8.00 at adenosine A2B receptor, 6.30 to 7.00 at adenosine A2A receptor and less than 6.30 on adenosine A3 receptor [3]. In addition, on adenosine A2B receptor (setting [7]), the Ratio is 19.04. The results for the intrinsic clearance (hepatocyte CLint) in data set [2] and in [4] were 58.9 µL/min/1e6 cells and 27.7 µL/min/1e6 cells, respectively. At CYP3A4, the inhibition at 10 µM was 1.91%.

Consider `O=C(NCCO)c1nc(NCc2cncc(F)c2)nc2ccsc12` [Example Z123, 2-(((5-Fluoropyridin-3-yl)methyl)amino)-N-(2-hydroxyethyl)thieno[3,2-d]pyrimidine-4-carboxamide], for which the pIC50 against adenosine A1 receptor [1] was less than 6.30; on adenosine A2B receptor, 7.30 to 8.00; on adenosine A2A receptor, less than 6.30; against adenosine A3 receptor [3], less than 6.30. In addition, the Ratio on adenosine A2B receptor (setting [7]) came out at 42.97. The hepatocyte CLint in [2] came out at 5.54 µL/min/1e6 cells; in data set [4], 22 µL/min/1e6 cells. Further, the inhibition at 10 µM on CYP3A4 was determined as 76.5%.

For `COC1CN(C(=O)c2nc(N[C@@H](C)c3ccccn3)nc3ccsc23)C1` [Example Z108, (S)-(3-Methoxyazetidin-1-yl)(2-((1-(pyridin-2-yl)ethyl)amino)thieno[3,2-d]pyrimidin-4-yl)methanone], the pIC50 at adenosine A1 receptor [1] was less than 6.30; on adenosine A2B receptor, 7.30 to 8.00; against adenosine A3 receptor [3], less than 6.30. Also, the Ratio on adenosine A2B receptor (setting [7]) is on record as 10.93. In addition, the hepatocyte CLint in data set [2] was found to be 5.66 µL/min/1e6 cells; in data set [4], 23.4 µL/min/1e6 cells. Besides, at CYP3A4, the inhibition at 10 µM is 31%.

Turning to `O=C(c1nc(NCc2cncc(F)c2)nc2ccsc12)N1CC(O)C1` [Example Z109, (2-(((5-Fluoropyridin-3-yl)methyl)amino)thieno[3,2-d]pyrimidin-4-yl)(3-hydroxyazetidin-1-yl)methanone], the pIC50 is less than 6.30 against adenosine A1 receptor [1], greater than 8.00 at adenosine A2B receptor, less than 6.30 on adenosine A2A receptor and less than 6.30 on adenosine A3 receptor [3]. Also, the Ratio at adenosine A2B receptor (setting [7]) was found to be 68.08. The figures for the hepatocyte CLint in [2] and in data set [4] were 4.11 µL/min/1e6 cells and 19.9 µL/min/1e6 cells, respectively. At CYP3A4, the inhibition at 10 µM came to 28.4%.

For the molecule `C[C@H](Nc1nc(C(=O)N2CCCC2)c2sccc2n1)c1cccc(F)c1` [Example Z125, (S)-(2-((1-(3-Fluorophenyl)ethyl)amino)thieno[3,2-d]pyrimidin-4-yl)(pyrrolidin-1-yl)methanone], the pIC50 at adenosine A1 receptor [1] is less than 6.30; at adenosine A2B receptor it was greater than 8.00; at adenosine A2A receptor it was 6.30 to 7.00; at adenosine A3 receptor [3], less than 6.30. Further, the Ratio on adenosine A2B receptor (setting [7]) is recorded as 15.42. For the same molecule, the hepatocyte CLint was 42.8 µL/min/1e6 cells in data set [2] and 144 µL/min/1e6 cells in [4]. Also, the inhibition at 10 µM at CYP3A4 is -50.9%.

Regarding `COC1CN(C(=O)c2nc(NCc3cncc(F)c3)nc3ccsc23)C1` [Example Z115, (2-(((5-Fluoropyridin-3-yl)methyl)amino)thieno[3,2-d]pyrimidin-4-yl)(3-methoxyazetidin-1-yl)methanone], the pIC50 was less than 6.30 at adenosine A1 receptor [1], greater than 8.00 at adenosine A2B receptor, 6.30 to 7.00 at adenosine A2A receptor and less than 6.30 at adenosine A3 receptor [3]. Moreover, the Ratio on adenosine A2B receptor (setting [7]) turned out to be 71.92. In addition, the results for the hepatocyte CLint in data set [2] and in data set [4] were 13.9 µL/min/1e6 cells and 51.7 µL/min/1e6 cells, respectively. In addition, the inhibition at 10 µM at CYP3A4 was 75%.

Regarding `C[C@H](Nc1nc(C(=O)N2CC(O)C2)c2sccc2n1)c1ccccn1` [Example Z100, (S)-(3-Hydroxyazetidin-1-yl)(2-((1-(pyridin-2-yl)ethyl)amino)thieno[3,2-d]pyrimidin-4-yl)methanone], the pIC50 at adenosine A1 receptor [1] was less than 6.30; on adenosine A2B receptor, 7.30 to 8.00; on adenosine A2A receptor, 6.30 to 7.00; against adenosine A3 receptor [3] it was less than 6.30. Moreover, at adenosine A2B receptor (setting [7]), the Ratio was determined as 11.09. Also, the figures for the hepatocyte CLint in data set [2] and in [4] were 1.89 µL/min/1e6 cells and 22.2 µL/min/1e6 cells, respectively. The inhibition at 10 µM at CYP3A4 came to 7.65%.

Turning to `C[C@H]1CCN(C(=O)c2nc(N[C@@H](C)c3ccccn3)nc3ccsc23)C1` [Example Z87, ((S)-3-Methylpyrrolidin-1-yl)(2-(((S)-1-(pyridin-2-yl)ethyl)amino)thieno[3,2-d]pyrimidin-4-yl)methanone], the pIC50 was less than 6.30 at adenosine A1 receptor [1], 7.30 to 8.00 at adenosine A2B receptor, 6.30 to 7.00 on adenosine A2A receptor and less than 6.30 on adenosine A3 receptor [3]. The Ratio on adenosine A2B receptor (setting [7]) worked out at 11.70. The hepatocyte CLint in data set [2] turned out to be 13.3 µL/min/1e6 cells; in [4], 57.6 µL/min/1e6 cells. Besides, on CYP3A4, the inhibition at 10 µM turned out to be 19.9%.

As for `O=C(c1nc(NCc2cncc(F)c2)nc2ccsc12)N1CC[C@H](F)C1` [Example Z99, (S)-(2-(((5-Fluoropyridin-3-yl)methyl)amino)thieno[3,2-d]pyrimidin-4-yl)(3-fluoropyrrolidin-1-yl)methanone], the negative logarithm of the IC50 (pIC50) on adenosine A1 receptor [1] was less than 6.30; at adenosine A2B receptor, 7.30 to 8.00; at adenosine A2A receptor, less than 6.30; against adenosine A3 receptor [3] it was less than 6.30. In addition, the Ratio on adenosine A2B receptor (setting [7]) is reported as 37.02. Moreover, the hepatocyte CLint was determined as 21.1 µL/min/1e6 cells in data set [2] and 65.3 µL/min/1e6 cells in [4]. Moreover, the inhibition at 10 µM at CYP3A4 was 48.9%.

As to `Cc1ncccc1CNc1nc(C(=O)N2CCCC2)c2sccc2n1` [Example Z91, (2-(((2-Methylpyridin-3-yl)methyl)amino)thieno[3,2-d]pyrimidin-4-yl)(pyrrolidin-1-yl)methanone], the Ratio at adenosine A2B receptor (setting [7]) is on record as 16.69. Also, the values for the pIC50 on adenosine A2B receptor and on adenosine A2A receptor were 7.30 to 8.00 and 6.30 to 7.00, respectively. The hepatocyte CLint in data set [2] was determined as 7.19 µL/min/1e6 cells; in data set [4], 47.1 µL/min/1e6 cells. Moreover, the inhibition at 10 µM at CYP3A4 was 19%.

For `O=C(c1nc(NCc2cccc(Cl)c2)nc2ccsc12)N1CCC1` [Example Z121, Azetidin-1-yl(2-((3-chlorobenzyl)amino)thieno[3,2-d]pyrimidin-4-yl)methanone], the figures for the pIC50 on adenosine A2B receptor and at adenosine A2A receptor were 7.30 to 8.00 and 6.30 to 7.00, respectively. For the same molecule, the hepatocyte CLint is 85.1 µL/min/1e6 cells in [2] and 249 µL/min/1e6 cells in data set [4]. The inhibition at 10 µM on CYP3A4 came to 48.6%.

`C[C@H](Nc1nc(C(=O)N2CC(NC(=O)C3(C)CC3)C2)c2sccc2n1)c1cncc(Cl)c1` [Example Z641, (S)—N-(1-(2-((1-(5-Chloropyridin-3-yl)ethyl)amino)thieno[3,2-d]pyrimidine-4-carbonyl)azetidin-3-yl)-1-methylcyclopropane-1-carboxamide]: on adenosine A2B receptor (A2A activity to the A2B activity, A2A/A2B), the Ratio was 1.81. The pIC50 was greater than 8.00 on adenosine A2B receptor (cAMP), less than 6.30 at adenosine A1 receptor [5], 7.30 to 8.00 at adenosine A2A receptor (cAMP) and 6.30 to 7.00 on adenosine A3 receptor [6].
